The source of these data is patent publication US10344054B2, “Angiotensin-1-receptor antagonists” (Ferring B.V., priority 2016, dated 2019).

The target of assay [1] is T1, hAT1R (Homo sapiens, UniProt P30556).
T1 sequence (P30556 1-359): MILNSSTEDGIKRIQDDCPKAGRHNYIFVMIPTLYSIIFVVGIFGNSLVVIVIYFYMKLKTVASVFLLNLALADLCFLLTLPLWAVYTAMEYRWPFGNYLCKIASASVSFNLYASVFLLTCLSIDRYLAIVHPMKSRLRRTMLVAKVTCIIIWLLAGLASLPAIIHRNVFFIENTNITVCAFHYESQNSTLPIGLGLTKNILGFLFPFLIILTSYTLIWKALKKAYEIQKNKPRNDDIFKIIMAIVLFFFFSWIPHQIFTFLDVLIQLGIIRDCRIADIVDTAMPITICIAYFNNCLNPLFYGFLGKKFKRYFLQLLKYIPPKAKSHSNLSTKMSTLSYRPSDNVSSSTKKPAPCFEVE
The assay is described as follows: FLIPR calcium flux assay, Part I: agonist activity. Type of assay: cell-based. Conditions: read-out: hAT1R Agonist Efficacy Agonist (%) Ave. Here is the method:
(§1) AT1 receptor (AT1R) agonists increase intracellular flux of calcium ions. AT1R antagonists can reduce the agonist effect. […] Compounds were first tested for agonism (Part I) followed by addition of the AT1R agonist angiotensin II to test for antagonist activity (Part II). This assay used a stable hAT1R expressing cell line (ChanTest hAT1R; ChanTest Corp A628). Intracellular flux of calcium in response to agonist was measured through real-time measurement of fluorescence induced through the interaction of Ca2+ (released from intracellular stores) and calcium-sensitive dye. In Part I, cells were exposed to varying concentrations of test compounds and immediately measured for agonist activity (EC50 and Efficacy).
(§2) ChanTest hAT1R stable cells were maintained in Ham's F12 containing 10% (v/v) heat inactivated fetal bovine serum (FBS-HI), 4 mM Glutamax, 1% NEAA, 50 ng/mL plasmocin, 400 μg/mL G418 at 37° C. under 5% CO2 in a humidified atmosphere.
(§3) For FLIPR assay, ChanTest hAT1R cells were trypsinized with 6 ml of Trypsin EDTA solution and harvested in phenol-red free DMEM containing 10% FBS-HI, 4 mM Glutamax and counted, spun down and resuspended in the same medium. The cell suspension was added to the wells of 384-well black PDL clear bottom plates at 2.5×10^4 cells/well, 20 μl/well.
(§4) Preparation of Loading Buffer:
(§5) • Loading Buffer: 1 vial of Calcium 5 Bulk Assay reagent was dissolved in 100 ml of 1× HBSS-20 mM Hepes buffer. • Probenecid was resuspended at 1 M in 1 M NaOH. Once the probenecid had gone into solution, an equal volume of H2O was added to make a solution of 500 mM followed by a 1:100 dilution in the Loading Buffer for a working concentration of 5 mM. The pH was adjusted to 7.4 using 1 M NaOH. Loading the Cells with Loading Buffer • Cell plates were removed from the incubator and 25 μl of Loading Buffer containing probenecid (5 mM) added to each well. • Plates were incubated for 1 hour at 37° C. under 5% CO2 in a humidified atmosphere. […] The remaining steps of the assay were carried forward by FLIPR Tetra. A baseline reading was taken at 1-second (s) intervals for 10 s followed by the addition of 5 μl of 10× compounds. The compound-induced fluorescence signal was then measured for 3 minutes with readings taken at 1-s intervals. • The cell plate was removed from the FLIPR and set aside for an additional 17 minutes. • The cell plate was then transferred back to the FLIPR Tetra, along with the 384 well Angiotensin II agonist dilution plate. A baseline reading was taken at 1-second (s) intervals for 10 seconds, followed by the addition of 5.5 μl of 10× Angiotensin II agonist. The agonist-induced fluorescence signal was then measured for 3 minutes with readings taken at 1-s intervals. • Overall, each well in the FLIPR assay was composed of the following components in a total volume of 55.5 μl:
(§6) Time-course results from the FLIPR Calcium 5 assay were expressed as relative fluorescence light units (RFU). The maximum minus minimum values (Max−Min) were used to quantify the strength of the signal. Mean RFU were calculated from replicate values and plotted on the y-axis versus compound concentration on a logarithmic scale on the x-axis, and a single-binding site, four parameter concentration response model: (MIN+((MAX−MIN)/(1+((EC50/x)^Hill)))), was used to perform non-linear regression analysis, generating concentration response curves. Reported parameters included agonist potency EC50 (the concentration causing half-maximal agonist response), antagonist potency IC50 (the concentration causing half-maximal inhibition of the agonist response for antagonist compounds) and efficacy (% MPE: percent of the maximal possible effect).
On the technique in general: Calcium flux is commonly read through the fluorescence of an indicator in the cells.

For assay [2], the target named is T1, hAT1R. Nature of the assay: FLIPR calcium flux assay, Part II: antagonist activity against Angiotensin II. As to hAT1R Antagonist Efficacy Antag (%) Ave: Angiotensin II 10 nM final concentration. It counts as cell-based. Conditions: for Emax: read-out: hAT1R Antagonist Efficacy Antag (%) Ave. Here is the method: as §1, §2, §3, §4, §5, §6
The mark [3] stands for this setting: ChanTest hAT1R stable cells, % MPE, percent of the maximal possible effect.
[4] abbreviates: read-out: hAT1R Antagonist IC50 Ave.

Where two headings read alike, the source gives them in different places. Residues, ends and D or L forms follow the SMILES beside them.

One may read the IC50 as the concentration at which inhibition is half-maximal. As for `CNCC(=O)N[C@@H](CCCNC(=N)N)C(=O)N[C@H](C(=O)N[C@@H](Cc1ccc(O)cc1)C(=O)N[C@@H](Cc1ccc(N)cc1)C(=O)N[C@@H](Cc1c[nH]cn1)C(=O)N1CCC[C@H]1C(=O)N[C@H](Cc1cccc2ccccc12)C(=O)O)C(C)C` [Compound 13, Sar-Arg-Val-Tyr-Aph-His-Pro-(D-1Nal)-OH] (HELM PEPTIDE1{[Sar].R.V.Y.[Nc1ccc(C[C@H](N[*:1])C(=O)[*:2])cc1].H.P.[O=C(O)[C@@H](Cc1cccc2ccccc12)N[*:1]]}$$$$V2.0), the Emax is 7% on hAT1R [1] (setting [3]) and 100% at hAT1R [2]. Further, the IC50 on hAT1R [2] (setting [4]) stood at 3.2 nM.

Regarding `CNCC(=O)N[C@@H](CCCNC(=N)N)C(=O)N[C@H](C(=O)N[C@@H](Cc1ccc(O)cc1)C(=O)N[C@@H](CC1CCCCC1)C(=O)N[C@@H](Cc1c[nH]cn1)C(=O)N1CCC[C@H]1C(=O)N[C@H](Cc1cccc2ccccc12)C(=O)O)C(C)C` [Compound 14, Sar-Arg-Val-Tyr-Cha-His-Pro-(D-1Nal)-OH] (HELM PEPTIDE1{[Sar].R.V.Y.[Cha].H.P.[O=C(O)[C@@H](Cc1cccc2ccccc12)N[*:1]]}$$$$V2.0), the Emax on hAT1R [1] (setting [3]) turned out to be 5%; at hAT1R [2], 100%. Moreover, the 50% inhibitory concentration (IC50) at hAT1R [2] (setting [4]) was 8 nM.

`CNCC(=O)N[C@@H](CCCNC(=N)N)C(=O)N[C@H](C(=O)N[C@@H](Cc1ccc(O)cc1)C(=O)N[C@H](C(=O)N[C@@H](Cc1c[nH]cn1)C(=O)N1CCC[C@H]1C(=O)N[C@H](Cc1cccc2ccccc12)C(=O)O)C1CCCC1)C(C)C` [Compound 15, Sar-Arg-Val-Tyr-Cpg-His-Pro-(D-1Nal)-OH] (HELM PEPTIDE1{[Sar].R.V.Y.[O=C([C@@H](N[*:1])C1CCCC1)[*:2]].H.P.[O=C(O)[C@@H](Cc1cccc2ccccc12)N[*:1]]}$$$$V2.0): the Emax was 6% at hAT1R [1] (setting [3]) and 100% on hAT1R [2]. For the same compound, the IC50 at hAT1R [2] (setting [4]) stood at 4.6 nM.

For `CNCC(=O)N[C@@H](CCCNC(=N)N)C(=O)N[C@H](C(=O)N[C@@H](Cc1ccc(O)cc1)C(=O)N[C@@H](Cc1ccccc1)C(=O)N[C@@H](Cc1c[nH]cn1)C(=O)N1CCC[C@H]1C(=O)N[C@H](Cc1cccc2ccccc12)C(=O)O)C(C)C` [Compound 16, Sar-Arg-Val-Tyr-Phe-His-Pro-(D-1Nal)-OH] (HELM PEPTIDE1{[Sar].R.V.Y.F.H.P.[O=C(O)[C@@H](Cc1cccc2ccccc12)N[*:1]]}$$$$V2.0), the Emax on hAT1R [1] (setting [3]) is 6%; on hAT1R [2] it was 99%. Moreover, on hAT1R [2] (setting [4]), the IC50 came to 5 nM.

Regarding `CNCC(=O)N[C@@H](CCCNC(=N)N)C(=O)N[C@H](C(=O)N[C@@H](Cc1ccc(O)cc1)C(=O)N[C@H](C(=O)N[C@@H](Cc1c[nH]cn1)C(=O)N1CCC[C@H]1C(=O)N[C@H](Cc1cccc2ccccc12)C(=O)O)[C@@H](C)OC)C(C)C` [Compound 17, Sar-Arg-Val-Tyr-Thr(Me)-His-Pro-(D-1Nal)-OH], the results for the Emax at hAT1R [1] and on hAT1R [2] were 4% and 100%, respectively. On hAT1R [2], the IC50 stood at 6 nM.

With `CNCC(=O)N[C@@H](CCCNC(=N)N)C(=O)N[C@H](C(=O)N[C@@H](Cc1ccc(O)cc1)C(=O)N[C@H](C(=O)N[C@@H](Cc1c[nH]cn1)C(=O)N1CCC[C@H]1C(=O)N[C@H](Cc1ccccc1Cl)C(=O)O)C1CCCC1)C(C)C` [Compound 18, Sar-Arg-Val-Tyr-Cpg-His-Pro-(D-Phe(2-Cl))—OH] (HELM PEPTIDE1{[Sar].R.V.Y.[O=C([C@@H](N[*:1])C1CCCC1)[*:2]].H.P.[O=C(O)[C@@H](Cc1ccccc1Cl)N[*:1]]}$$$$V2.0), the Emax was 3% at hAT1R [1] (setting [3]) and 99% on hAT1R [2]. For the same compound, the half-maximal inhibitory concentration (IC50) on hAT1R [2] (setting [4]) worked out at 10.1 nM.

Turning to `CNCC(=O)N[C@@H](CCCNC(=N)N)C(=O)N[C@H](C(=O)N[C@@H](Cc1ccc(O)cc1)C(=O)N[C@H](C(=O)N[C@@H](Cc1c[nH]cn1)C(=O)N1CCC[C@H]1C(=O)N[C@H](Cc1ccccc1Cl)C(=O)O)C1CCCCC1)C(C)C` [Compound 19, Sar-Arg-Val-Tyr-Chg-His-Pro-(D-Phe(2-Cl))—OH] (HELM PEPTIDE1{[Sar].R.V.Y.[O=C([C@@H](N[*:1])C1CCCCC1)[*:2]].H.P.[O=C(O)[C@@H](Cc1ccccc1Cl)N[*:1]]}$$$$V2.0), the Emax at hAT1R [1] (setting [3]) worked out at 8%; on hAT1R [2], 99%. Further, the IC50 at hAT1R [2] (setting [4]) was found to be 14.1 nM.

For `CNCC(=O)N[C@@H](CCCNC(=N)N)C(=O)N[C@H](C(=O)N[C@@H](Cc1ccc(O)cc1)C(=O)N[C@@H](Cc1ccc(N)cc1)C(=O)N[C@@H](Cc1c[nH]cn1)C(=O)N1CCC[C@H]1C(=O)N[C@H](Cc1ccccc1Cl)C(=O)O)C(C)C` [Compound 20, Sar-Arg-Val-Tyr-Aph-His-Pro-(D-Phe(2-Cl))—OH] (HELM PEPTIDE1{[Sar].R.V.Y.[Nc1ccc(C[C@H](N[*:1])C(=O)[*:2])cc1].H.P.[O=C(O)[C@@H](Cc1ccccc1Cl)N[*:1]]}$$$$V2.0), the Emax on hAT1R [1] (setting [3]) amounted to 5%; on hAT1R [2], 99%. The IC50 at hAT1R [2] (setting [4]) is 5.2 nM.

In the case of `CNCC(=O)N[C@@H](CCCNC(=N)N)C(=O)N[C@H](C(=O)N[C@@H](Cc1ccc(O)cc1)C(=O)N[C@H](C(=O)N[C@@H](Cc1c[nH]cn1)C(=O)N1CCC[C@H]1C(=O)N[C@H](Cc1ccccc1Cl)C(=O)O)[C@@H](C)OC)C(C)C` [Compound 21, Sar-Arg-Val-Tyr-Thr(Me)-His-Pro-(D-Phe(2-Cl))—OH], the Emax stood at 2% on hAT1R [1] (setting [3]) and 99% on hAT1R [2]. The IC50 at hAT1R [2] (setting [4]) is 10.6 nM.

On to `CNCC(=O)N[C@@H](CCCNC(=N)N)C(=O)N[C@H](C(=O)N[C@@H](Cc1ccc(O)cc1)C(=O)N[C@@H](Cc1ccsc1)C(=O)N[C@@H](Cc1c[nH]cn1)C(=O)N1CCC[C@H]1C(=O)N[C@H](Cc1ccccc1Cl)C(=O)O)C(C)C` [Compound 22, Sar-Arg-Val-Tyr-(3-Thi)-His-Pro-(D-Phe(2-Cl))—OH] (HELM PEPTIDE1{[Sar].R.V.Y.[O=C([C@H](Cc1ccsc1)N[*:1])[*:2]].H.P.[O=C(O)[C@@H](Cc1ccccc1Cl)N[*:1]]}$$$$V2.0), for which the Emax at hAT1R [1] (setting [3]) came out at 3%; at hAT1R [2], 99%. Moreover, the IC50 on hAT1R [2] (setting [4]) was found to be 5 nM.

For `CNCC(=O)N[C@@H](CCCNC(=N)N)C(=O)N[C@H](C(=O)N[C@@H](Cc1ccc(O)cc1)C(=O)N[C@@H](Cc1cccs1)C(=O)N[C@@H](Cc1c[nH]cn1)C(=O)N1CCC[C@H]1C(=O)N[C@H](Cc1ccccc1Cl)C(=O)O)C(C)C` [Compound 23, Sar-Arg-Val-Tyr-(2-Thi)-His-Pro-(D-Phe(2-Cl))—OH] (HELM PEPTIDE1{[Sar].R.V.Y.[O=C([C@H](Cc1cccs1)N[*:1])[*:2]].H.P.[O=C(O)[C@@H](Cc1ccccc1Cl)N[*:1]]}$$$$V2.0), the Emax on hAT1R [1] (setting [3]) came out at 4%; on hAT1R [2], 98%. In addition, the IC50 at hAT1R [2] (setting [4]) came to 5.2 nM.

For `CNCC(=O)N[C@@H](CCCNC(=N)N)C(=O)N[C@H](C(=O)N[C@@H](Cc1ccc(O)cc1)C(=O)N[C@@H](Cc1cscn1)C(=O)N[C@@H](Cc1c[nH]cn1)C(=O)N1CCC[C@H]1C(=O)N[C@H](Cc1ccccc1Cl)C(=O)O)C(C)C` [Compound 24, Sar-Arg-Val-Tyr-(Ala(4-Thz))-His-Pro-(D-Phe(2-Cl))—OH] (HELM PEPTIDE1{[Sar].R.V.Y.[O=C([C@H](Cc1cscn1)N[*:1])[*:2]].H.P.[O=C(O)[C@@H](Cc1ccccc1Cl)N[*:1]]}$$$$V2.0), the figures for the Emax on hAT1R [1] (setting [3]) and at hAT1R [2] were 4% and 99%, respectively. For the same compound, at hAT1R [2] (setting [4]), the IC50 was determined as 7 nM.
